Test system: NOMO1
Assay: cell viability relative to DMSO control; higher = less cytotoxic
Settings: 48 h
In short: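 Viability was expressed as a per-plate percentage of DMSO wells, with cell-free wells as background. Leukemia cells (NOMO1 or SEM at 500 cells/well, P12-Ichikawa at 1000 cells/well) were adapted for at least four passages in each medium and seeded in 1536-well plates (5 μl). Library compounds in DMSO were pin-dosed over an 11-point threefold series from 47 μM to 0.79 nM, and CellTiter-Glo One luminescence was read after 48 h at 37°C.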

[1] = HPLM + 10% dialyzed FBS, 0.000781 µM
[2] = HPLM + 10% dialyzed FBS, 0.00234 µM
[3] = HPLM + 10% dialyzed FBS, 0.00702 µM
[4] = HPLM + 10% dialyzed FBS, 0.0211 µM
[5] = HPLM + 10% dialyzed FBS, 0.0632 µM
[6] = HPLM + 10% dialyzed FBS, 0.19 µM
[7] = HPLM + 10% dialyzed FBS, 0.569 µM
[8] = HPLM + 10% dialyzed FBS, 1.71 µM
[9] = HPLM + 10% dialyzed FBS, 5.12 µM
[10] = HPLM + 10% dialyzed FBS, 15.4 µM
[11] = HPLM + 10% dialyzed FBS, 46.1 µM
[12] = RPMI 5 mM glucose + 10% FBS, 0.000781 µM
[13] = RPMI 5 mM glucose + 10% FBS, 0.00234 µM
[14] = RPMI 5 mM glucose + 10% FBS, 0.00702 µM
[15] = RPMI 5 mM glucose + 10% FBS, 0.0211 µM
[16] = RPMI 5 mM glucose + 10% FBS, 0.0632 µM
[17] = RPMI 5 mM glucose + 10% FBS, 0.19 µM
[18] = RPMI 5 mM glucose + 10% FBS, 0.569 µM
[19] = RPMI 5 mM glucose + 10% FBS, 1.71 µM
[20] = RPMI 5 mM glucose + 10% FBS, 5.12 µM
[21] = RPMI 5 mM glucose + 10% FBS, 15.4 µM
[22] = RPMI 5 mM glucose + 10% FBS, 46.1 µM
[23] = RPMI 5 mM glucose + 10% dialyzed FBS, 0.000781 µM
[24] = RPMI 5 mM glucose + 10% dialyzed FBS, 0.00234 µM
[25] = RPMI 5 mM glucose + 10% dialyzed FBS, 0.00702 µM
[26] = RPMI 5 mM glucose + 10% dialyzed FBS, 0.0211 µM
[27] = RPMI 5 mM glucose + 10% dialyzed FBS, 0.0632 µM
[28] = RPMI 5 mM glucose + 10% dialyzed FBS, 0.19 µM
[29] = RPMI 5 mM glucose + 10% dialyzed FBS, 0.569 µM
[30] = RPMI 5 mM glucose + 10% dialyzed FBS, 1.71 µM
[31] = RPMI 5 mM glucose + 10% dialyzed FBS, 5.12 µM
[32] = RPMI 5 mM glucose + 10% dialyzed FBS, 15.4 µM
[33] = RPMI 5 mM glucose + 10% dialyzed FBS, 46.1 µM

Row | SMILES | cell viability [1] | cell viability [2] | cell viability [3] | cell viability [4] | cell viability [5] | cell viability [6] | cell viability [7] | cell viability [8] | cell viability [9] | cell viability [10] | cell viability [11] | cell viability [12] | cell viability [13] | cell viability [14] | cell viability [15] | cell viability [16] | cell viability [17] | cell viability [18] | cell viability [19] | cell viability [20] | cell viability [21] | cell viability [22] | cell viability [23] | cell viability [24] | cell viability [25] | cell viability [26] | cell viability [27] | cell viability [28] | cell viability [29] | cell viability [30] | cell viability [31] | cell viability [32] | cell viability [33]
1 | CCOC(=O)\C1=C\[C@]2(CC)CCCN3CCC4=C([C@H]23)[N]1C5=C4C=CC=C5 | 104% | 118% | 122% | 124% | 125% | 126% | 131% | 123% | 124% | 126% | 54.5% | 95.3% | 103% | 113% | 113% | 123% | 120% | 135% | 113% | 102% | 111% | 57.7% | 91.8% | 105% | 118% | 122% | 108% | 113% | 119% | 110% | 108% | 105% | 70.5%
2 | O=P(O)(O)C(O)(Cn1ccnc1)P(=O)(O)O | 95.9% | 126% | 120% | 119% | 125% | 130% | 121% | 139% | 104% | 111% | 117% | 93.5% | 111% | 108% | 103% | 105% | 109% | 101% | 104% | 110% | 104% | 101% | 101% | 127% | 114% | 130% | 112% | 133% | 118% | 124% | 122% | 117% | 104%
3 | CNCC[C@H](Oc1cccc2ccccc12)c1cccs1 | 117% | 119% | 145% | 116% | 134% | 117% | 130% | 123% | 90.8% | 41.5% | 26.5% | 108% | 122% | 122% | 116% | 120% | 112% | 124% | 110% | 116% | 44.5% | 26.3% | 105% | 127% | 116% | 119% | 137% | 113% | 112% | 114% | 121% | 46.7% | 27.4%
4 | Cc1ccccc1C(=O)Nc1ccc(C(=O)N2CCCC(O)c3cc(Cl)ccc32)c(C)c1 (stereo unspecified) | 129% | 125% | 123% | 141% | 139% | 121% | 143% | 163% | 147% | 125% | 137% |  |  |  |  |  |  |  |  |  |  |  |  |  |  |  |  |  |  |  |  |  | 
5 | NC[C@H]1O[C@H](O[C@@H]2[C@H](O)[C@@H](O[C@H]3O[C@H](CO)[C@@H](O)[C@H](N)[C@H]3O)[C@H](N)C[C@@H]2N)[C@H](O)[C@@H](O)[C@@H]1O | 132% | 122% | 121% | 111% | 135% | 127% | 113% | 129% | 112% | 121% | 109% |  |  |  |  |  |  |  |  |  |  |  | 120% | 128% | 114% | 124% | 113% | 124% | 113% | 123% | 120% | 106% | 112%
6 | Nc1c2c(nc3ccccc13)CCCC2 | 129% | 105% | 122% | 125% | 118% | 100% | 117% | 31.8% | 83.6% | 35.5% | 10.3% | 113% | 123% | 115% | 117% | 108% | 117% | 115% | 41.6% | 98.3% | 40.2% | 8.53% | 118% | 105% | 112% | 119% | 128% | 111% | 111% | 67.9% | 80.1% | 51% | 19.2%
7 | CC(C)(O)CC(=O)NCCn1ccc2ncnc(Nc3ccc(Oc4cccc(C(F)(F)F)c4)c(Cl)c3)c21 | 96.8% | 109% | 107% | 120% | 89.5% | 98.9% | 107% | 85.5% | 80.5% | 54.7% | 33.9% | 95.1% | 109% | 103% | 105% | 101% | 97.9% | 111% | 95.3% | 96.8% | 79% | 53.6% | 106% | 100% | 95.3% | 108% | 99.8% | 109% | 107% | 97.1% | 81.9% | 67.8% | 44.1%
8 | OCC(O)C(O)C(O)CO (stereo unspecified) | 98.8% | 88.8% | 87.7% | 104% | 81.7% | 92.4% | 99% | 86.3% | 96.7% | 70.2% | 80% | 84% | 99.3% | 92.6% | 84.4% | 89.9% | 87.7% | 84.9% | 85.8% | 82% | 82.1% | 80% | 77.9% | 86.8% | 112% | 96.2% | 106% | 106% | 103% | 84.9% | 89% | 72.5% | 94.6%
